Results published in patent publication US7074938B2, “Method for the synthesis of soritin compounds” (The Regents of the University of California, priority 2002, dated 2006).
Marks after values point to notes of the source that are not given here.

How the values were obtained:
Format in all cases: in vivo
[1] = test system: PMA-induced edema of the mouse ear; assay: Inhibition of PMA-induced inflammation (edema) of the mouse ear; details: 3 h 20 min, in mg (unit assumed)
Method: The test compound made by the method of the present invention and a known inflammatory agent, phorbol myristate acetate (PMA), are topically applied simultaneously to the left ears of mice. Three hours and 20 minutes following application, the mice are sacrificed. Both left ears and right ears are removed and standard sized bores taken. Edema (inflammation) is measured as the difference in weight between left and right ears. See Van Arman, C. G. (1974) Clin. Pharmacol. Ther. 16:900–904, which is herein incorporated by reference.
Soritin B and a known inflammatory agent, phorbol myristate acetate (PMA), were topically applied simultaneously to the left ears of mice. Three hours and 20 minutes following application, the mice were sacrificed. Both left ears and right ears were removed and standard sized bores taken. Edema (inflammation) was measured as the difference in weight between left and right ears. See Van Arman, C. G. (1974) Clin. Pharmacol. Ther. 16:900–904, which is herein incorporated by reference.

[2] = test system: RTX-induced edema of the mouse ear; assay: Inhibition of resiniferatoxin (RTX)-induced inflammation (edema) of the mouse ear; details: 30 min
Method: Induction of mouse ear edema can be conducted according to known methods. See Inoue, 1-f., N. Nagata, Y. Koshffiara (1993), which is herein incorporated by reference. Soritin compounds to be tested for anti-neurogenic inflammatory activity are topically applied in acetone to the ears of mice in a solution that includes the edema-causing irritant resiniferatoxin (RTX). RTX alone (0.1 μg/ear) or in combination with various dilutions of test compound are applied to both sides of the left ears (5 mice per treatment group) and acetone is applied to all right ears. After a 30-minute incubation, the mice are sacrificed, the ears removed, and bores taken and weighed. Edema is measured by subtracting the weight of the right ear (acetone control) from the weight of the left ear (treated). Results are recorded as % decrease (inhibition) or % increase (potentiation) in edema relative to the control group edema.
Soritin B was tested for anti-neurogenic inflammatory activity by topically applying in acetone to the ears of mice in a solution that includes the edema-causing irritant resiniferatoxin (RTX) as provided above. See Inoue, 1-f., N. Nagata, Y. Koshffiara (1993), which is herein incorporated by reference. Specifically, RTX alone (0.1 μg/ear) or in combination with various dilutions of Soritin B was applied to both sides of the left ears (5 mice per treatment group) and acetone was applied to all right ears. After a 30-minute incubation, the mice are sacrificed, the ears removed, and bores taken and weighed. Edema was measured by subtracting the weight of the right ear (acetone control) from the weight of the left ear (treated). Results were recorded as % decrease (inhibition) or % increase (potentiation) in edema relative to the control group edema.

test ears of mice = assay: Soritin B coloration and irritation when applied to mouse ear skin

For `COC(=O)C(c1c[nH]c2ccccc12)c1c[nH]c2ccccc12` [Soritin B, bis-(1H-indol-3-yl)-acetic acid methyl ester], the “Mean edema (difference in weight between left and right ear bores)” value ([1]; 3.12 μg/ear topical with PMA 2.0 μg/ear) was 10.0**, the “Mean edema (difference in weight between left and right ear bores)” value ([1]; 6.25 μg/ear topical with PMA 2.0 μg/ear) was 9.7** and the “Mean edema (difference in weight between left and right ear bores)” value ([1]; 12.5 μg/ear topical with PMA 2.0 μg/ear) was 8.6*. For the same compound, the “Mean edema (difference in weight between left and right ear bores)” value ([1]; 25 μg/ear topical with PMA 2.0 μg/ear) was 5.9*, the “Mean edema (difference in weight between left and right ear bores)” value ([1]; 50 μg/ear topical with PMA 2.0 μg/ear) was 3.4* and the “Mean edema (weight of left ear minus right ear bores)” value ([2]; 3.12 μg/ear topical in acetone with RTX 0.1 μg/ear) was 9.1. For the same compound, the “Mean edema (weight of left ear minus right ear bores)” value ([2]; 6.25 μg/ear topical in acetone with RTX 0.1 μg/ear) was 6.5*, the “Mean edema (weight of left ear minus right ear bores)” value ([2]; 12.5 μg/ear topical in acetone with RTX 0.1 μg/ear) was 3.2* and the “Mean edema (weight of left ear minus right ear bores)” value ([2]; 25 μg/ear topical in acetone with RTX 0.1 μg/ear) was 1.7*. The “Mean edema (weight of left ear minus right ear bores)” value ([2]; 50 μg/ear topical in acetone with RTX 0.1 μg/ear) was 1.0*, the “Redness or swelling after overnight exposure” value (test ears of mice; 50 μg/ear, overnight exposure, compared to controls) was “did not result in any discernable redness or swelling” and the “Coloration on test ears” value (test ears of mice; in acetone alone and in combination with PMA or RTX, from beginning to end of the experiments) was “did not exhibit any discernable coloration”.
